Results taken from patent US20100255598A1, “Medication Adherence Monitoring System” (priority 2007, published 2010).
Where two headings read alike, the source gives them in different places.

Assays:
[1] = test system: alcohol dehydrogenase (ADH); assay: Breath ketone:alcohol ratio after 2° alcohol taggant; assay type: in vivo; conditions: breath concentrations
Method: The presence (and persistence) of their corresponding ketones (EDIMs) in exhaled breath represents definitive proof of ingestion of a medication containing 2° alcohols (or a 2° alcohol-based ester, carbonate ester, ketal, etc.) as taggants. In general due to increased steric hindrance, 2° alcohols are not as good substrates for ADH relative to 1° alcohols. Likewise, the enzymatic pathways to degrade alcohol-derived ketones appear less efficient than those for alcohol-derived aldehydes.

alcohol dehydrogenase = conditions: cited from earlier work
CYP1A2 = target: T1, CYP1A2 (Homo sapiens, UniProt P05177); conditions: given orally to humans; cited from earlier work
T1 sequence (P05177 1-516): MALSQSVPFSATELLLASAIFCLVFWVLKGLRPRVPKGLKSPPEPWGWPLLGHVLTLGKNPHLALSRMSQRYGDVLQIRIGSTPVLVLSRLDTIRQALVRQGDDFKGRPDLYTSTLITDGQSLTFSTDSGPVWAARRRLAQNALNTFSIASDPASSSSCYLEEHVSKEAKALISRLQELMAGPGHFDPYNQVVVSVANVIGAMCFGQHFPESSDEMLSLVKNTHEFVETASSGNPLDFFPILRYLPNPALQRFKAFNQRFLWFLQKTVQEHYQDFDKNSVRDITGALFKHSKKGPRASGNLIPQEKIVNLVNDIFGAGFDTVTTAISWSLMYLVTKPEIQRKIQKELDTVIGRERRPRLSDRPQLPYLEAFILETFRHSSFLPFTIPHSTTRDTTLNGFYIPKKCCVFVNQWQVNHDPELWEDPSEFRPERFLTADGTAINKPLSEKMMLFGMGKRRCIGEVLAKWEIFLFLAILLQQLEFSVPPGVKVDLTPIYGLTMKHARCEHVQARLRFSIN

CYP 2D6 = CYP 2D6 (Homo sapiens, UniProt P10635); conditions: via CYP 2D6; cited from earlier work
CYP 2D6, sequence (P10635 whole entry): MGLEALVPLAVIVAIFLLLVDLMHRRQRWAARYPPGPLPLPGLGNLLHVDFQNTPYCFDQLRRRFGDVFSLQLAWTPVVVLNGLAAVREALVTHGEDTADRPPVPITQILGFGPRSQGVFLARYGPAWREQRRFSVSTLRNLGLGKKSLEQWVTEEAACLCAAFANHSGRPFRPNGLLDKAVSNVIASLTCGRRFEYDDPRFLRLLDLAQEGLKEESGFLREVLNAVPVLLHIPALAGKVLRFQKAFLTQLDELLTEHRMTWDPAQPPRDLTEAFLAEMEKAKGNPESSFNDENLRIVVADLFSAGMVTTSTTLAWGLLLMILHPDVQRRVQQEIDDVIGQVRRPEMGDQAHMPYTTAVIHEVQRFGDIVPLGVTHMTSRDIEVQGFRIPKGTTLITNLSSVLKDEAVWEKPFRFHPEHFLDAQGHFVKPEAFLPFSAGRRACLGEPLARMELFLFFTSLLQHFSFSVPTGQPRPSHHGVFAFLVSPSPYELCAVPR

[2] = at 37° C.; cited from earlier work

With `CCC(C)=O` [2-butanone] the “ketone:alcohol ratio 2-butanone/2-butanol” value [1] was greater than 1.
For `CO` [Methanol, methanol], the “half life in the blood” value (alcohol dehydrogenase; in the absence of alcohol) is listed as 1.8 to 3.0 h and the “half life in the blood” value (alcohol dehydrogenase; in the presence of alcohol) is listed as 8 to 24 h.
For `Cn1c(=O)c2c(ncn2C)n(C)c1=O` [caffeine], the “fraction converted to theophylline” value (CYP1A2) is given as “Approximately 80%”.
In the case of `COc1ccc2c3c1O[C@H]1[C@@H](O)C=C[C@H]4[C@@H](C2)N(C)CC[C@@]341` [codeine], the “fraction converted to morphine in vivo” value (CYP 2D6) is listed as “about 10%”.
For `CC(C)c1cccc(C(C)C)c1O` [propofol], the vapor pressure [2] is listed as roughly 0.2 mmHg.
